# Key:
# [1] = test system: CTG repeat expansion in the 3′ UTR of human DMPK gene; assay: DOUBLE-cut screening: CTG repeat excision by loss-of-signal ddPCR in primary DM1 patient myoblasts; format: cell-based; conditions: sgRNA pair RNP, mean of upstream and downstream ddPCR assays; for % of CTG repeat excision efficiency by ddPCR (DNA-PKi): 3 μM Compound 6 for 48 hrs; for % of CTG repeat excision efficiency by ddPCR (Vehicle): DMSO 48 hrs
# Experimental: (§1) RNPs were assembled with recombinant SaCas9 protein (Aldevron) and chemically modified sgRNAs (Synthego) at a ratio of 1:3 (protein:sgRNA). For SINGLE-cut screening, RNP complexes were assembled with 30 pmol of SaCas9 and 90 pmol of sgRNA in P5 Primary Cell Nucleofector Solution (Lonza). After incubation at room temperature for 20 minutes, 10 μL of RNP complex was mixed with two hundred thousand primary myoblasts resuspended in 10 μL of P5 Nucleofector Solution. For DOUBLE-cut screening, RNP complexes were first assembled for individual sgRNAs with 20 pmol of SaCas9 protein and 60 pmol of sgRNAs in 5 μL of P5 Nucleofector Solution. After incubation at room temperature for 20 minutes, the two RNP complexes (one for upstream sgRNA and one for downstream sgRNA) were mixed at 1:1 ratio and then further mixed with two hundred thousand primary myoblasts resuspended in 10 μL of P5 Nucleofector Solution.
# (§2) The Nucleofector 96-well Shuttle System (Lonza) was used to deliver the SaCa9/sgRNA RNPs into primary DM1 patient myoblasts using the nucleofection program CM138. Following nucleofection, myoblasts from each well of nucleofection shuttle were split into six wells of the 96-well cell culture plate (Greiner, 655090) coated with matrigel. The first three wells were treated with DMSO for 48 hrs before changing to fresh myoblast growth medium, and the other three wells were treated with 3 μM of DNA-PKi Compound 6 for 48 hrs before changing to fresh myoblast growth medium. 72 hrs post nucleofection, two wells of DMSO-treated myoblasts and two wells of DNA-PKi-treated myoblasts from each nucleofection were harvested for genomic DNA extraction using the Kingfisher Flex purification system (Thermal Fisher), whereas one well of DMSO-treated myoblasts and one well of DNA-PKi-treated myoblasts were stained for RNA foci by FISH staining.
# The primers and probes of ddPCR were designed using the online primer design software Primer3Plus (http://www.bioinformatics.nl/cgi-bin/primer3plus/primer3plus.cgi). The two Target primers/probe sets were used to detect CTG repeat excision, and the Reference primers/probe set was used to amplify a region located in Exon 1 of human DMPK gene and it served as a reference control for the Target sets. The 24 μL of ddPCR reaction consisted of 12 μL of Supermix for Probes (no dUTP) (Bio-Rad Laboratories), 1 μL of Reference primers mix (21.6 μM), 1 μL of Reference probe (6 μM), 1 μL of Target primers mix (21.6 μM), 1 μL of Target probe (6 μM), and 8 μL of sample genomic DNA. Droplets were generated using probe oil with the QX200 Droplet Generator (Bio-Rad Laboratories). Droplets were transferred to a 96-well PCR plate, sealed and cycled in a C1000 deep well Thermocycler (Bio-Rad Laboratories) under the following cycling protocol: 1 cycle at 95° C. for 10 min; 40 cycles of 94° C. for 30 sec, and 58° C. for 1 min; 1 cycle at 98° C. for 10 min (for enzyme inactivation). The cycled plate was then transferred and read in the FAM and HEX channels using the Bio-Rad QX200 Droplet Reader (Bio-Rad Laboratories). ddPCR analysis was performed with the Bio-Rad QuantaSoft Pro Software.
# Next, DOUBLE-cut screening was performed to assess the efficiency of paired sgRNAs-induced CTG repeat excision and RNA foci reduction. 90 SaCas9 sgRNA pairs formed by one upstream sgRNA and one downstream sgRNA were assembled with recombinant SaCas9 protein into RNP complex and nucleofected into primary DM1 patient myoblasts. Nucleofected myoblasts were treated with either DMSO (vehicle) or 3 μM of Compound 6 (DNA-PKi) for 48 hrs. 72 hrs post nucleofection, myoblasts were subjected to either genomic DNA isolation or RNA foci staining.
# One upstream and one downstream loss-of-signal droplet digital PCR (ddPCR) assays were used to determine the efficiency of CTG repeat excision. ddPCR signals would be abolished upon excision of the CTG repeat expansion in these loss-of-signal ddPCR assays. […]
# [2] = test system: CUG RNA foci in primary DM1 patient myoblasts; assay: DOUBLE-cut screening: FISH staining of RNA foci in primary DM1 patient myoblasts; format: cell-based, human; conditions: sgRNA pair RNP, 72 hrs post nucleofection; for % of CUG foci free nuclei (DNA-PKi): 3 μM Compound 6 for 48 hrs; for % of CUG foci free nuclei (Vehicle): DMSO 48 hrs
# Experimental: as §1, §2
# Primary myoblasts were fixed for 15 min with 4% paraformaldehyde (PFA) and washed five times with 1×PBS for 10 min each at room temperature. Before staining, cells were permeabilized with 0.5% triton X-100 in 1×PBS for 5 min at room temperature, and then washed with 30% formamide and 2× saline-sodium citrate (SSC) mixture for 10 min at room temperature. Cells were then stained with 1 ng/μL of Cy3-PNA(CAG) 5 probe (PNA Bio, F5001) diluted in 30% formamide, 2×SSC, 2 μg/mL BSA, 66 μg/mL yeast tRNA, and 2 mM vanadyl complex for 15 min at 80° C. Following probe staining, cells were then washed in 30% formamide and 2×SSC mixture for 30 min at 42° C., then washed in 30% formamide and 2×SSC mixture for 30 min at 37° C., and then washed in 1×SSC solution for 10 min at room temperature, and finally washed in 1×PBS for 10 min at room temperature. Cells were next stained with anti-MBNL1 antibody (Santa Cruz, 3A4) diluted in 1% bovine serum albumin (BSA) for overnight at 4° C., and washed twice with 1×PBS for 10 min each at room temperature. Cells were then incubated with the secondary antibody goat […] Alexa 647 (Thermo Fisher, A32728) diluted in 1% BSA for 1 hr at room temperature, and washed twice with 1×PBS for 10 min each at room temperature. Next, cells were stained with Hoechst solution (Thermo Fisher, H3569) at 0.1 mg/ml for 5 min, and washed once with 1×PBS for 5 min. PBS was aspirated and fresh 100 μl of fresh PBS was added to each well. High-throughput acquisition of images was completed with the ImageXpress Micro Confocal High-Content Imaging System (Molecular Devices). RNA foci quantifications were accomplished with a customized analysis module of the MetaXpress program (Molecular Devices).
# Next, DOUBLE-cut screening was performed to assess the efficiency of paired sgRNAs-induced CTG repeat excision and RNA foci reduction. 90 SaCas9 sgRNA pairs formed by one upstream sgRNA and one downstream sgRNA were assembled with recombinant SaCas9 protein into RNP complex and nucleofected into primary DM1 patient myoblasts. […]
Substance,% of CTG repeat excision efficiency by ddPCR (DNA-PKi) [1] [%],% of CTG repeat excision efficiency by ddPCR (Vehicle) [1] [%],% of CUG foci free nuclei (DNA-PKi) [2] [%],% of CUG foci free nuclei (Vehicle) [2] [%]
"SaU1 + SaD18: SaCas9 sgRNA pair, SEQ ID NOs: 1 and 26 (guide 1 GCCCCGGAGTCGAAGACAGTTC; guide 2 GGGCCTTTTATTCGCGAGGGTC; listed as DNA, chemistry not fully specified)",47.64,19.40,69.94,29.85
"SaU1 + SaD19: SaCas9 sgRNA pair, SEQ ID NOs: 1 and 27 (guide 1 GCCCCGGAGTCGAAGACAGTTC; guide 2 AGGACCCCCACCCCCGACCCTC; listed as DNA, chemistry not fully specified)",52.62,32.74,76.49,49.44
"SaU1 + SaD20: SaCas9 sgRNA pair, SEQ ID NOs: 1 and 28 (guide 1 GCCCCGGAGTCGAAGACAGTTC; guide 2 AGATGGAGGGCCTTTTATTCGC; listed as DNA, chemistry not fully specified)",61.37,39.94,83.73,69.61
"SaU2 + SaD2: SaCas9 sgRNA pair, SEQ ID NOs: 2 and 10 (guide 1 ACTCAGTCTTCCAACGGGGCCC; guide 2 TCGGCCAGGCTGAGGCCCTGAC; listed as DNA, chemistry not fully specified)",56.39,52.26,83.29,81.76
"SaU2 + SaD3: SaCas9 sgRNA pair, SEQ ID NOs: 2 and 11 (guide 1 ACTCAGTCTTCCAACGGGGCCC; guide 2 CAACGATAGGTGGGGGTGCGTG; listed as DNA, chemistry not fully specified)",56.04,36.75,80.14,55.11
"SaU2 + SaD5: SaCas9 sgRNA pair, SEQ ID NOs: 2 and 13 (guide 1 ACTCAGTCTTCCAACGGGGCCC; guide 2 GGGTTTGGCAAAAGCAAATTTC; listed as DNA, chemistry not fully specified)",59.19,38.64,83.71,75.82
"SaU2 + SaD6: SaCas9 sgRNA pair, SEQ ID NOs: 2 and 14 (guide 1 ACTCAGTCTTCCAACGGGGCCC; guide 2 CTTTTGCCAAACCCGCTTTTTC; listed as DNA, chemistry not fully specified)",45.77,24.88,65.23,31.53
"SaU2 + SaD7: SaCas9 sgRNA pair, SEQ ID NOs: 2 and 15 (guide 1 ACTCAGTCTTCCAACGGGGCCC; guide 2 GGGGCGCGGGATCCCCGAAAAA; listed as DNA, chemistry not fully specified)",52.12,29.62,76.74,49.05
"SaU2 + SaD10: SaCas9 sgRNA pair, SEQ ID NOs: 2 and 18 (guide 1 ACTCAGTCTTCCAACGGGGCCC; guide 2 TTGGGGGTCCTGTAGCCTGTCA; listed as DNA, chemistry not fully specified)",66.52,38.02,82.97,75.56
"SaU2 + SaD11: SaCas9 sgRNA pair, SEQ ID NOs: 2 and 19 (guide 1 ACTCAGTCTTCCAACGGGGCCC; guide 2 CAAAACGTGGATTGGGGTTGTT; listed as DNA, chemistry not fully specified)",52.97,26.90,73.23,48.38
"SaU2 + SaD12: SaCas9 sgRNA pair, SEQ ID NOs: 2 and 20 (guide 1 ACTCAGTCTTCCAACGGGGCCC; guide 2 TCAGTGCATCCAAAACGTGGAT; listed as DNA, chemistry not fully specified)",58.68,36.47,83.77,76.56
"SaU2 + SaD13: SaCas9 sgRNA pair, SEQ ID NOs: 2 and 21 (guide 1 ACTCAGTCTTCCAACGGGGCCC; guide 2 CCCAACAACCCCAATCCACGTT; listed as DNA, chemistry not fully specified)",51.47,30.92,75.83,39.86
"SaU2 + SaD15: SaCas9 sgRNA pair, SEQ ID NOs: 2 and 23 (guide 1 ACTCAGTCTTCCAACGGGGCCC; guide 2 GACAATAAATACCGAGGAATGT; listed as DNA, chemistry not fully specified)",60.64,41.70,85.85,76.57

# Reference: US20240181081A1, “Compositions and Methods for Treatment of Myotonic Dystrophy Type 1 with CRISPR/SACAS9” (Vertex Pharmaceuticals Incorporated, priority 2021, published 2024)
